# Assays:
# Experiment in all cases: radiometric filter-binding kinase assay
# [1] = test system: SGK1 (human), O00141 [S422D]
# MST4 (human) = MST4 (human) (UniProt Q9P289)
# RPS6KA3 KD1 KD2 (human) = RPS6KA3 KD1 KD2 (human) (UniProt P51812)
# PRKCZ (human) = PRKCZ (human) (UniProt Q05513)
# MARK3 (human) = MARK3 (human) (UniProt P27448)
# PRKCA (human) = PRKCA (human) (UniProt P17252)
# MAPK3 (human) = MAPK3 (human) (UniProt P27361)
# PLK1 (human) = PLK1 (human) (UniProt P53350)
# RPS6KA1 KD1 KD2 (human) = RPS6KA1 KD1 KD2 (human) (UniProt Q15418)
# RPS6KA5 KD1 KD2 (human) = RPS6KA5 KD1 KD2 (human) (UniProt O75582)
# FLT1 (human) = FLT1 (human) (UniProt P17948)
# STK3 (human) = STK3 (human) (UniProt Q13188)
# CHEK1 (human) = CHEK1 (human) (UniProt O14757)
# CDK2 CCNA2 (human) = CDK2 CCNA2 (human) (UniProt P20248+P24941)
# MAPK1 (human) = MAPK1 (human) (UniProt P28482)
# CHEK2 (human) = CHEK2 (human) (UniProt O96017)
# EEF2K (human) = EEF2K (human) (UniProt O00418)
# BRSK2 (human) = BRSK2 (human) (UniProt Q8IWQ3)
# SRC (human) = SRC (human) (UniProt P12931)
# PAK6 (human) = PAK6 (human) (UniProt Q9NQU5)
# Chain of CHEK2 (human) (O96017 whole entry, looked up): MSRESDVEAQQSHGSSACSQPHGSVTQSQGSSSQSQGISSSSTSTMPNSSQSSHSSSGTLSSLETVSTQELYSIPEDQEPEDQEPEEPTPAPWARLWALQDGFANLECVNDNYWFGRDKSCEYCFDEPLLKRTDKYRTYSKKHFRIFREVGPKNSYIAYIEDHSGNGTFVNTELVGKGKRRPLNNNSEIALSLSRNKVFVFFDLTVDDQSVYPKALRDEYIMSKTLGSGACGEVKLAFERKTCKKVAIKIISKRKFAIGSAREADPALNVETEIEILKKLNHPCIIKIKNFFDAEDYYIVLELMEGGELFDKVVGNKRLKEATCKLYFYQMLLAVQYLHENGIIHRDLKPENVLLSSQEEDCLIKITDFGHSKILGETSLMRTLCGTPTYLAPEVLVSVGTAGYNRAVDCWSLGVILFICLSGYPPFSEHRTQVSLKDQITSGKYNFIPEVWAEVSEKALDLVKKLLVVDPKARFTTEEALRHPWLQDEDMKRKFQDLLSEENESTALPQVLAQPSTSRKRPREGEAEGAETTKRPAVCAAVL
# Chain of RPS6KA5 KD1 KD2 (human) (O75582 whole entry, looked up): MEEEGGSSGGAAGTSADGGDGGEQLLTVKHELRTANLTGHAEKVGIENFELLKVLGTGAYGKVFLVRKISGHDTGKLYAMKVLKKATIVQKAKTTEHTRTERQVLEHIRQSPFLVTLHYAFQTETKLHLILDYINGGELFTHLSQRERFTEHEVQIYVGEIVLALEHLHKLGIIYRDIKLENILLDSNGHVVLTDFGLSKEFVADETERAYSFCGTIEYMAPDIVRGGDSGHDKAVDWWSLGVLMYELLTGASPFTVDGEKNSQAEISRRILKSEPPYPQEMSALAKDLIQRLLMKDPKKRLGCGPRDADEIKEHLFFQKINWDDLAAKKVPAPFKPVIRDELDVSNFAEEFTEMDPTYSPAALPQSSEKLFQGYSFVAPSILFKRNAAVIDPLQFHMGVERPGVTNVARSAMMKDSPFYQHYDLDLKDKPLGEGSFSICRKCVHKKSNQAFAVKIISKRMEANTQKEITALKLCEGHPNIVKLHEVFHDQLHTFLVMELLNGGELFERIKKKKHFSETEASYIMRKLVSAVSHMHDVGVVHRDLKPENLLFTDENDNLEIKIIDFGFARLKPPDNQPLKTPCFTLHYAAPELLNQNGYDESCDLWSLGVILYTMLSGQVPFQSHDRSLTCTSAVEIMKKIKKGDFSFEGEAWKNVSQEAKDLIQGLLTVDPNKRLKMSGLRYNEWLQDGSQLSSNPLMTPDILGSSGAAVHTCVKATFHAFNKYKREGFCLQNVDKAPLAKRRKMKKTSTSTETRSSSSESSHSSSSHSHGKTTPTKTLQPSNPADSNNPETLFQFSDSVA
# Chain of SRC (human) (P12931 whole entry, looked up): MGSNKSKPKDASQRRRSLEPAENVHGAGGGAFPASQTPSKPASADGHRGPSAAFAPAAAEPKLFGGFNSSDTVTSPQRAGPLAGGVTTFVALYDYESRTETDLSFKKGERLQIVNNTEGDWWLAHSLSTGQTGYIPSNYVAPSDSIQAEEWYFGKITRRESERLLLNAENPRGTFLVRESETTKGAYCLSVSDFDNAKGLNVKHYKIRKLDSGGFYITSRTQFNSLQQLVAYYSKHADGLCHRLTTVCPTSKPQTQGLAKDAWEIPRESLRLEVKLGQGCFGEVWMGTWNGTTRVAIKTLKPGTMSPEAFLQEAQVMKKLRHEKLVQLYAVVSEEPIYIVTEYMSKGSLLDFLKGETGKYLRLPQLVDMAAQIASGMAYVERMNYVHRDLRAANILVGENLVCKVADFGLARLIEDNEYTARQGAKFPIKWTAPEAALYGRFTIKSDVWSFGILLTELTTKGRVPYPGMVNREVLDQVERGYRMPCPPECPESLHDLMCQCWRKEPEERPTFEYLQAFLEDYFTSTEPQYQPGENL
# Chain of BRSK2 (human) (Q8IWQ3 whole entry, looked up): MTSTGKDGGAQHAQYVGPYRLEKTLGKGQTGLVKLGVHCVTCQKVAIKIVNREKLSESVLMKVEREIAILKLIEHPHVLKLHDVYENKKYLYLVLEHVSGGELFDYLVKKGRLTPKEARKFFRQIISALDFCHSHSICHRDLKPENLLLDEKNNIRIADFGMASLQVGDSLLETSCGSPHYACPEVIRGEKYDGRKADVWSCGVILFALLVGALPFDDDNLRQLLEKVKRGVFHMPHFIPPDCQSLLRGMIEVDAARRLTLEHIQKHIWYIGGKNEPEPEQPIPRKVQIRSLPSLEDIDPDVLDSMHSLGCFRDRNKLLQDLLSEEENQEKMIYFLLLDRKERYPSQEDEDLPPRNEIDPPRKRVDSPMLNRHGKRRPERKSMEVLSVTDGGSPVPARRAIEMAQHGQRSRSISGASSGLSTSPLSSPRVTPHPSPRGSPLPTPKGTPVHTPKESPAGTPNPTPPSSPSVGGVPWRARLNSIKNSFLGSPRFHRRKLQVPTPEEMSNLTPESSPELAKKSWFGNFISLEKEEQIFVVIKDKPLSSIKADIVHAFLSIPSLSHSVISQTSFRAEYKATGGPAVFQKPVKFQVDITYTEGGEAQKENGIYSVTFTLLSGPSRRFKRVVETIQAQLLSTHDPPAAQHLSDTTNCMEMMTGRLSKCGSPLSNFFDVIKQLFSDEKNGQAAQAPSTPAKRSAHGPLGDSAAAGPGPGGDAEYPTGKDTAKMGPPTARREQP
# Chain of RPS6KA1 KD1 KD2 (human) (Q15418 whole entry, looked up): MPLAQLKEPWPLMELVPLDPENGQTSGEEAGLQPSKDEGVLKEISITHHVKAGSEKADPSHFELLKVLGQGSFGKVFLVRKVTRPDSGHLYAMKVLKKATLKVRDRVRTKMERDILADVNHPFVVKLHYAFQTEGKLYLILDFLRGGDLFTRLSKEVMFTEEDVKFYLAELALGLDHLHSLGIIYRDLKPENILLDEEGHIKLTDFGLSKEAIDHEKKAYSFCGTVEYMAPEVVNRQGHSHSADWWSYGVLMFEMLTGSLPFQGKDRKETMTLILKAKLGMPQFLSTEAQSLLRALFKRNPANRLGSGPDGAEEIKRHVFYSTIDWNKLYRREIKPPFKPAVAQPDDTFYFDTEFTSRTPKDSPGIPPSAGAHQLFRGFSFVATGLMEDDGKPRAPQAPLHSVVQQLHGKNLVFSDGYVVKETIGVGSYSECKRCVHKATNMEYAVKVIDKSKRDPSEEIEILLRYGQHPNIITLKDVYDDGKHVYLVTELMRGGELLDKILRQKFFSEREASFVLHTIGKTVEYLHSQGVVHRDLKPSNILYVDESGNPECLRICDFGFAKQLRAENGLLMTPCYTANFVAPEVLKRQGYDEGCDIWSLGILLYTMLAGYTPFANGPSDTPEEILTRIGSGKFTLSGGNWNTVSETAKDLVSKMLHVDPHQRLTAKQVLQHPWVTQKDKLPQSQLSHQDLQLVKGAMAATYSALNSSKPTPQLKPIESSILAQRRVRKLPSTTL
# Chain of RPS6KA3 KD1 KD2 (human) (P51812 whole entry, looked up): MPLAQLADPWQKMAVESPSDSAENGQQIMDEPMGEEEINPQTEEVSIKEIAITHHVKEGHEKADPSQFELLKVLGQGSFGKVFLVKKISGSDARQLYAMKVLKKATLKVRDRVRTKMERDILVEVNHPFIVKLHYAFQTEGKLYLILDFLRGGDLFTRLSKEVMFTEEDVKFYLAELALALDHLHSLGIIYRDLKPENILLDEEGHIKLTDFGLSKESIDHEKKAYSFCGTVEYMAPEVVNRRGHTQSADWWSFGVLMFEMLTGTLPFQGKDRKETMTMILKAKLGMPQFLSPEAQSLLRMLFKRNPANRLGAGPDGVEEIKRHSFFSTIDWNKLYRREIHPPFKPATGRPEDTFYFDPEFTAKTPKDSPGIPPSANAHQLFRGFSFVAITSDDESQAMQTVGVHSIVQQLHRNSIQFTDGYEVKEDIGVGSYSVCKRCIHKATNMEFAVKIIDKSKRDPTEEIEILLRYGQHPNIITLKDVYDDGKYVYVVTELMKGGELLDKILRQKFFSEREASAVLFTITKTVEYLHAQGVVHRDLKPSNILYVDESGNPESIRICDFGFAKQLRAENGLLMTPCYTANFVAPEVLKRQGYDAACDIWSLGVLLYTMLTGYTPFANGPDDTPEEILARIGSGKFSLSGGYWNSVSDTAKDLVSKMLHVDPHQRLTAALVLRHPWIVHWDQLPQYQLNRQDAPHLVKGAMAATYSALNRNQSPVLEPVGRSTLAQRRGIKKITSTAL
smiles,measurement,setting,value
C/C(=C1/C(=O)Nc2ccc(NC(N)=O)cc21)c1ccc[nH]1,residual activity,[1]; compound 0.001 µM,98%
same,residual activity,[1]; compound 0.01 µM,86%
same,residual activity,[1]; compound 0.1 µM,58%
same,residual activity,MST4 (human); compound 0.001 µM,87%
same,residual activity,MST4 (human); compound 0.01 µM,80%
same,residual activity,RPS6KA3 KD1 KD2 (human); compound 0.001 µM,82%
same,residual activity,RPS6KA3 KD1 KD2 (human); compound 0.01 µM,65%
same,residual activity,RPS6KA3 KD1 KD2 (human); compound 0.1 µM,19%
same,residual activity,PRKCZ (human); compound 0.001 µM,78%
same,residual activity,PRKCZ (human); compound 0.01 µM,84%
same,residual activity,PRKCZ (human); compound 0.1 µM,83%
same,residual activity,MARK3 (human); compound 0.001 µM,93%
same,residual activity,MARK3 (human); compound 0.01 µM,61%
same,residual activity,MARK3 (human); compound 0.1 µM,14%
same,residual activity,PRKCA (human); compound 0.001 µM,102%
same,residual activity,PRKCA (human); compound 0.01 µM,113%
same,residual activity,PRKCA (human); compound 0.1 µM,107%
same,residual activity,MAPK3 (human); compound 0.001 µM,97%
same,residual activity,MAPK3 (human); compound 0.01 µM,89%
same,residual activity,MAPK3 (human); compound 0.1 µM,82%
same,residual activity,PLK1 (human); compound 0.001 µM,86%
same,residual activity,PLK1 (human); compound 0.01 µM,82%
same,residual activity,PLK1 (human); compound 0.1 µM,72%
same,residual activity,RPS6KA1 KD1 KD2 (human); compound 0.001 µM,89%
same,residual activity,RPS6KA1 KD1 KD2 (human); compound 0.01 µM,75%
same,residual activity,RPS6KA1 KD1 KD2 (human); compound 0.1 µM,24%
same,residual activity,RPS6KA5 KD1 KD2 (human); compound 0.001 µM,83%
same,residual activity,RPS6KA5 KD1 KD2 (human); compound 0.01 µM,87%
same,residual activity,RPS6KA5 KD1 KD2 (human); compound 0.1 µM,80%
same,residual activity,FLT1 (human); compound 0.001 µM,95%
same,residual activity,FLT1 (human); compound 0.01 µM,50%
same,residual activity,FLT1 (human); compound 0.1 µM,13%
same,residual activity,STK3 (human); compound 0.001 µM,83%
same,residual activity,STK3 (human); compound 0.01 µM,36%
same,residual activity,STK3 (human); compound 0.1 µM,10%
same,residual activity,CHEK1 (human); compound 0.001 µM,89%
same,residual activity,CHEK1 (human); compound 0.1 µM,21%
same,residual activity,CDK2 CCNA2 (human); compound 0.001 µM,102%
same,residual activity,CDK2 CCNA2 (human); compound 0.01 µM,87%
same,residual activity,CDK2 CCNA2 (human); compound 0.1 µM,85%
same,residual activity,MAPK1 (human); compound 0.001 µM,108%
same,residual activity,MAPK1 (human); compound 0.01 µM,95%
same,residual activity,MAPK1 (human); compound 0.1 µM,79%
same,residual activity,CHEK2 (human); compound 0.001 µM,32%
same,residual activity,CHEK2 (human); compound 0.01 µM,7%
same,residual activity,CHEK2 (human); compound 0.1 µM,0%
same,residual activity,EEF2K (human); compound 0.01 µM,101%
same,residual activity,EEF2K (human); compound 0.1 µM,106%
same,residual activity,BRSK2 (human); compound 0.001 µM,59%
same,residual activity,BRSK2 (human); compound 0.01 µM,21%
same,residual activity,BRSK2 (human); compound 0.1 µM,12%
same,residual activity,SRC (human); compound 0.001 µM,84%
same,residual activity,SRC (human); compound 0.01 µM,79%
same,residual activity,SRC (human); compound 0.1 µM,71%
same,residual activity,PAK6 (human); compound 0.001 µM,97%
same,residual activity,PAK6 (human); compound 0.01 µM,102%
same,residual activity,PAK6 (human); compound 0.1 µM,88%

# Reference: the kinase profiling compilation of Christmann-Franck et al. (2016)
